Tests used:
HeLaS3 cells = assay: Inhibition on the Growth of HeLaS3 Cells (Neutral Red staining); assay type: cell-based; settings: Homo sapiens, HeLa S3, 72 hours at 37° C., absorbance at 550 nm, read-out: IC50 (the concentration of the test compound capable of inhibiting the growth of the cells at a ratio of 50%)
Method: (A) Inhibition on the Growth of HeLaS3 Cells
0.1 ml portions of a 3×10^4 cell/ml suspension of HeLaS3 cells [American Type Culture Collection (ATCC) CCL2.2]. in Minimum Essential Medium (MEM) medium (mfd. by Nissui Seiyaku) containing 10% of calf fetal serum and 2 mM of glutamine (hereinafter referred to as the medium A) were pipetted into a 96-well microtiter plate. 0.05 ml of the test compound optionally diluted with the medium A is added to each well, followed by incubating in a carbon dioxide gas incubator at 37° C. for 72 hours. After removing supernatant the culture 0.1 ml of the medium A containing 0.02% of Neutral Red is added to the residue. The cells are cultivated in the carbon dioxide gas incubator at 37° C. for additional one hour to thereby stain the cells. After removing the supernatant of culture, the residue was washed with saline once. The pigment is extracted with 0.001 N hydrochloric acid/30% ethanol and the absorbance at 550 nm is measured with a microplate reader. Then IC50 (the concentration of the test compound capable of inhibiting the growth of the cells at a ratio of 50%) is calculated on the basis of the comparison between the absorbance of untreated cells and that of the test compound-treated cells (at various concentration of the test compound).

Solubility = assay type: physicochemical

IC50 (HeLaS3 cells): 18 nM | Solubility (Solubility; in dimethylsulfoxide (DMSO), N,N-dimethylformamide and pyridine): soluble | Solubility (Solubility; in water, ethanol, methanol, ethyl acetate and chloroform): hardly soluble
Compound: Cc1c(O)cc2c(c1O)C(=O)c1c(cc3cc(O)cc(CC(=O)CC(C)O)c3c1O)C2=O (stereo not drawn) [UCE6]
